From patent US10047050B2, “3,4-di-substituted pyridine compound, methods of using and compositions comprising the same” (ARDEA BIOSCIENCES, INC., priority 2011, dated 2018)
Where “and” joins values, the source holds several entries; their conditions need not be identical. Identical values can stand only once.

Test system: serum uric acid
Assay: Multi-dose Phase I clinical trial, serum uric acid (sUA), once daily for 10 days
Assay type: in vivo, human
Conditions: for Absolute sUA concentration: individual subjects 4-12; for Absolute sUA concentration, Mean (4-10): mean of subjects 4-10
Description: A Phase 1, Randomized, Double-Blind, Placebo-Controlled Study to Evaluate Safety, Tolerability, Pharmacokinetics and Preliminary Food Effect of Multiple Rising Doses of a URAT1 Inhibitor, in Healthy Adult Male Volunteers.
Fasted subjects receive oral doses of active or placebo, once daily, for 10 days, at the following doses:
36 subjects in 3 dose groups, 12 subjects/group, are randomized […] to receive active (9/group) or placebo ([…]). All study procedures are the same regardless of whether subject receives active or placebo. Total duration of subject participation, including screening period, is ˜2-4 weeks, and the total volume of blood collected from each subject during the entire study <500 mL, (less than typically collected during a volunteer blood donation).
5 mg, active and placebo, tablets packaged in 35 count HDPE bottles, stored at controlled room temperature (15-30° C.). Placebo tablets are designed to match the active tablets—identical size, form, taste, and color, and containing the same excipients. 1 mg doses were administered as oral solutions.
Subjects dosed in the morning of Days 1-10 with ˜240 mL of room temp water.
Urine, serum and plasma samples collected periodically
PD samples frozen (−20° C.) and stored; all samples from a given subject assayed in a single analytical run.

[1] = group 7, 1 mg once daily for 10 days, Time 192, mean of subjects 4-12
[2] = group 7, 1 mg once daily for 10 days, Time 216, mean of subjects 4-12
[3] = group 7, 1 mg once daily for 10 days, Time 222 (post dosing), mean of subjects 4-12
[4] = group 7, 1 mg once daily for 10 days, Time 228 (post dosing), mean of subjects 4-12
[5] = group 7, 1 mg once daily for 10 days, Time 240 (post dosing), mean of subjects 4-12
[6] = group 7, 1 mg once daily for 10 days, Time 246 (post dosing), mean of subjects 4-12
[7] = group 7, 1 mg once daily for 10 days, Time 252 (post dosing), mean of subjects 4-12
[8] = group 7, 1 mg once daily for 10 days, Time 264 (post dosing), mean of subjects 4-12
[9] = group 7, 1 mg once daily for 10 days, Time 270 (post dosing), mean of subjects 4-12
[10] = group 7, 1 mg once daily for 10 days, Time 288 (post dosing), mean of subjects 4-12
[11] = group 7, 1 mg once daily for 10 days, Time 312 (post dosing), mean of subjects 4-12

For `CC(C)(Sc1ccncc1-c1ccc(C#N)c2ccccc12)C(=O)O` [2-((3-(4-cyanonaphthalen-1-yl)pyridin-4-yl)thio)-2-methylpropanoic acid], the “Absolute sUA concentration, Mean (4-12)” value (group 7, 1 mg once daily for 10 days, Time 168, mean of subjects 4-12) was 6.1 mg/dL, the “Absolute sUA concentration” value (group 7, 1 mg once daily for 10 days, Time 192) was 4.6 mg/dL and 5.0 mg/dL and 4.9 mg/dL and 6.5 mg/dL and 6.1 mg/dL and 5.9 mg/dL and 5.6 mg/dL and 5.1 mg/dL and 5.5 mg/dL and the “% sUA change (from baseline), Mean (4-12)” value (“% sUA change (from baseline)” below) [1] was −11.4%. For the same compound, the “Absolute sUA concentration, Mean (4-12)” value [1] was 5.5 mg/dL, the “Absolute sUA concentration” value (group 7, 1 mg once daily for 10 days, Time 216) was 4.7 mg/dL (2×) and 4.9 mg/dL (2×) and 6.1 mg/dL and 5.8 mg/dL and 5.3 mg/dL and 5.6 mg/dL and 5.9 mg/dL and the “% sUA change (from baseline)” value [2] was −13.6%. For the same compound, the “Absolute sUA concentration, Mean (4-12)” value [2] was 5.3 mg/dL, the “Absolute sUA concentration” value (group 7, 1 mg once daily for 10 days, Time 222 (post dosing)) was 4.7 mg/dL and 5.2 mg/dL and 4.9 mg/dL and 6.3 mg/dL and 5.9 mg/dL and 5.8 mg/dL and 5.4 mg/dL and 5.0 mg/dL and 5.5 mg/dL and the “% sUA change (from baseline)” value [3] was −12.2%. The “Absolute sUA concentration, Mean (4-12)” value [3] was 5.4 mg/dL, the “Absolute sUA concentration” value (group 7, 1 mg once daily for 10 days, Time 228 (post dosing)) was 4.3 mg/dL and 4.8 mg/dL (2×) and 4.9 mg/dL and 6.2 mg/dL and 5.6 mg/dL and 5.5 mg/dL and 5.3 mg/dL and 5.4 mg/dL and the “% sUA change (from baseline)” value [4] was −15.6%. The “Absolute sUA concentration, Mean (4-12)” value [4] was 5.2 mg/dL, the “Absolute sUA concentration” value (group 7, 1 mg once daily for 10 days, Time 240 (post dosing)) was 4.8 mg/dL and 5.5 mg/dL and 5.3 mg/dL and 6.9 mg/dL and 6.2 mg/dL (2×) and 5.9 mg/dL and 5.2 mg/dL and 6.0 mg/dL and the “% sUA change (from baseline)” value [5] was −6.3%. For the same compound, the “Absolute sUA concentration, Mean (4-12)” value [5] was 5.8 mg/dL, the “Absolute sUA concentration” value (group 7, 1 mg once daily for 10 days, Time 246 (post dosing)) was 4.4 mg/dL and the “% sUA change (from baseline)” value [6] was −13.2%. For the same compound, the “Absolute sUA concentration, Mean (4-12)” value [6] was 5.4 mg/dL, the “% sUA change (from baseline)” value [7] was −10.6% and the “Absolute sUA concentration, Mean (4-12)” value [7] was 5.5 mg/dL. For the same compound, the “% sUA change (from baseline)” value [8] was −10.3%, the “Absolute sUA concentration, Mean (4-12)” value [8] was 5.5 mg/dL and the “% sUA change (from baseline)” value [9] was −17.4%. The “Absolute sUA concentration, Mean (4-12)” value [9] was 5.1 mg/dL, the “% sUA change (from baseline)” value [10] was −19.8% and the “Absolute sUA concentration, Mean (4-12)” value [10] was 5.0 mg/dL. The “% sUA change (from baseline)” value [11] was −14.9%, the “Absolute sUA concentration, Mean (4-12)” value [11] was 5.3 mg/dL and the “% sUA change (from baseline)” value (group 8, 5 mg once daily for 10 days, Time 0, mean of active subjects) was 0%. For the same compound, the “Absolute sUA concentration, Mean (4-10)” value (group 8, 5 mg once daily for 10 days, Time 0) was 5.9 mg/dL, the “% sUA change (from baseline)” value (group 8, 5 mg once daily for 10 days, Time 6, mean of active subjects) was −20.5% and the “Absolute sUA concentration, Mean (4-10)” value (group 8, 5 mg once daily for 10 days, Time 6) was 4.7 mg/dL. For the same compound, the “% sUA change (from baseline)” value (group 8, 5 mg once daily for 10 days, Time 12, mean of active subjects) was −25.6%, the “Absolute sUA concentration, Mean (4-10)” value (group 8, 5 mg once daily for 10 days, Time 12) was 4.4 mg/dL and the “% sUA change (from baseline)” value (group 8, 5 mg once daily for 10 days, Time 24, mean of active subjects) was −21.1%. The “Absolute sUA concentration, Mean (4-10)” value (group 8, 5 mg once daily for 10 days, Time 24) was 4.7 mg/dL, the “% sUA change (from baseline)” value (group 8, 5 mg once daily for 10 days, Time 48, mean of active subjects) was −30.9% and the “Absolute sUA concentration, Mean (4-10)” value (group 8, 5 mg once daily for 10 days, Time 48) was 4.1 mg/dL. The “% sUA change (from baseline)” value (group 8, 5 mg once daily for 10 days, Time 72, mean of active subjects) was −33.7%, the “Absolute sUA concentration, Mean (4-10)” value (group 8, 5 mg once daily for 10 days, Time 72) was 3.9 mg/dL and the “% sUA change (from baseline)” value (group 8, 5 mg once daily for 10 days, Time 96, mean of active subjects) was −30.4%. For the same compound, the “Absolute sUA concentration, Mean (4-10)” value (group 8, 5 mg once daily for 10 days, Time 96) was 4.1 mg/dL, the “% sUA change (from baseline)” value (group 8, 5 mg once daily for 10 days, Time 102, mean of active subjects) was −37.8% and the “Absolute sUA concentration, Mean (4-10)” value (group 8, 5 mg once daily for 10 days, Time 102) was 3.7 mg/dL. For the same compound, the “% sUA change (from baseline)” value (group 8, 5 mg once daily for 10 days, Time 108, mean of active subjects) was −40.2%, the “Absolute sUA concentration, Mean (4-10)” value (group 8, 5 mg once daily for 10 days, Time 108) was 3.5 mg/dL and the “% sUA change (from baseline)” value (group 8, 5 mg once daily for 10 days, Time 120, mean of active subjects) was −30%. For the same compound, the “Absolute sUA concentration, Mean (4-10)” value (group 8, 5 mg once daily for 10 days, Time 120) was 4.1 mg/dL, the “% sUA change (from baseline)” value (group 8, 5 mg once daily for 10 days, Time 144, mean of active subjects) was −35.2% and the “Absolute sUA concentration, Mean (4-10)” value (group 8, 5 mg once daily for 10 days, Time 144) was 3.8 mg/dL. The “% sUA change (from baseline)” value (group 8, 5 mg once daily for 10 days, Time 168, mean of active subjects) was −38.1%, the “Absolute sUA concentration, Mean (4-10)” value (group 8, 5 mg once daily for 10 days, Time 168) was 3.6 mg/dL and the “% sUA change (from baseline)” value (group 8, 5 mg once daily for 10 days, Time 192, mean of active subjects) was −35.7%. The “Absolute sUA concentration, Mean (4-10)” value (group 8, 5 mg once daily for 10 days, Time 192) was 3.8 mg/dL, the “% sUA change (from baseline)” value (group 8, 5 mg once daily for 10 days, Time 216, mean of active subjects) was −33.4% and the “Absolute sUA concentration, Mean (4-10)” value (group 8, 5 mg once daily for 10 days, Time 216) was 3.9 mg/dL. For the same compound, the “% sUA change (from baseline)” value (group 8, 5 mg once daily for 10 days, Time 222 (post dosing), mean of active subjects) was −39.6%, the “Absolute sUA concentration, Mean (4-10)” value (group 8, 5 mg once daily for 10 days, Time 222 (post dosing)) was 3.6 mg/dL and the “% sUA change (from baseline)” value (group 8, 5 mg once daily for 10 days, Time 228 (post dosing), mean of active subjects) was −41.4%. The “Absolute sUA concentration, Mean (4-10)” value (group 8, 5 mg once daily for 10 days, Time 228 (post dosing)) was 3.5 mg/dL, the “% sUA change (from baseline)” value (group 8, 5 mg once daily for 10 days, Time 240 (post dosing), mean of active subjects) was −31.2% and the “Absolute sUA concentration, Mean (4-10)” value (group 8, 5 mg once daily for 10 days, Time 240 (post dosing)) was 4.1 mg/dL. The “% sUA change (from baseline)” value (group 8, 5 mg once daily for 10 days, Time 246 (post dosing), mean of active subjects) was −35.8%, the “Absolute sUA concentration, Mean (4-10)” value (group 8, 5 mg once daily for 10 days, Time 246 (post dosing)) was 3.8 mg/dL and the “% sUA change (from baseline)” value (group 8, 5 mg once daily for 10 days, Time 252 (post dosing), mean of active subjects) was −39.1%. For the same compound, the “Absolute sUA concentration, Mean (4-10)” value (group 8, 5 mg once daily for 10 days, Time 252 (post dosing)) was 3.6 mg/dL, the “% sUA change (from baseline)” value (group 8, 5 mg once daily for 10 days, Time 264 (post dosing), mean of active subjects) was −31.9% and the “Absolute sUA concentration, Mean (4-10)” value (group 8, 5 mg once daily for 10 days, Time 264 (post dosing)) was 4.0 mg/dL. For the same compound, the “% sUA change (from baseline)” value (group 8, 5 mg once daily for 10 days, Time 270 (post dosing), mean of active subjects) was −22.9%, the “Absolute sUA concentration, Mean (4-10)” value (group 8, 5 mg once daily for 10 days, Time 270 (post dosing)) was 4.5 mg/dL and the “% sUA change (from baseline)” value (group 8, 5 mg once daily for 10 days, Time 288 (post dosing), mean of active subjects) was −24.8%. For the same compound, the “Absolute sUA concentration, Mean (4-10)” value (group 8, 5 mg once daily for 10 days, Time 288 (post dosing)) was 4.4 mg/dL, the “% sUA change (from baseline)” value (group 8, 5 mg once daily for 10 days, Time 312 (post dosing), mean of active subjects) was −13.7% and the “Absolute sUA concentration, Mean (4-10)” value (group 8, 5 mg once daily for 10 days, Time 312 (post dosing)) was 5.1 mg/dL.
